Experimental data as given in patent publication EP0908457B1, “3-(1,2-benzisothiazol- and isoxazol-5-Y1)-2,4(1H,3H)-pyrimidinedione or thione and 3-(1,2-benzisothiazol- and isoxazol-5-y1)-4(3H)-pyrimidinone or thione herbicidal agents” (BASF AKTIENGESELLSCHAFT, priority 1997, dated 1999).

Assays:
[1] = test system: Echinochloa oryzoides (Ard.) Fritsch.; test: Preemergence weed control under flooded paddy conditions, ECHORC (Watergrass (Calif.)); format: in vivo; settings: preemergence, flooded paddy
Cyperus iria = test: Preemergence weed control under flooded paddy conditions, CYPIR (Rice Flatsedge); format: in vivo; settings: preemergence, flooded paddy
[2] = test system: Cyperus serotinus, Rottb.; test: Preemergence weed control under flooded paddy conditions, CYPSE (Flatsedge); format: in vivo; settings: preemergence
[3] = test system: Monochoria vaginalis, Presl.; test: Preemergence weed control under flooded paddy conditions, MOOVA (Monochoria); format: in vivo; settings: preemergence, flooded paddy
Sagittaria pygmaea, L. = test: Preemergence weed control under flooded paddy conditions, SAGPY (Arrowhead (Pygmaea)); format: in vivo; settings: preemergence, flooded paddy
[4] = test system: Oryza sativa, (L.) Tebonnet; test: Rice tolerance to post-transplant applications under flooded paddy conditions (Example 187), ORYSAT (Rice, Tebonnet); for herbicidal effect rating ORYSAT: meaning of each grade not given here
[5] = Rate 0.0320 kg/ha, rated 3-4 weeks after treatment
[6] = Rate 0.0620 kg/ha, rated 3-4 weeks after treatment
[7] = Rate 0.1250 kg/ha, rated 3-4 weeks after treatment
[8] = Rate 0.2500 kg/ha, rated 3-4 weeks after treatment
[9] = Rate 0.0320 kg/ha, rated three to four weeks after treatment
[10] = Rate 0.0620 kg/ha, rated three to four weeks after treatment
[11] = Rate 0.1250 kg/ha, rated three to four weeks after treatment
[12] = Rate 0.2500 kg/ha, rated three to four weeks after treatment
[13] = Rate 0.5000 kg/ha, rated three to four weeks after treatment

Structure (SMILES): COCCCOCCCOC(=O)COc1ccc(C)cc1-c1nsc2ccc(-n3c(=O)cc(C(F)(F)F)n(C)c3=O)cc12 [Example 523, Acetic acid, {{2-{5-[3,6-dihydro-3-methyl-2,6-dioxo-4-(trifluoromethyl)-1(2H)-pyrimidinyl]-1,2-benzisothiazol-3-yl}-p-tolyl}oxy}-, 3-(3-methoxypropoxy)propyl ester]
- herbicidal effect rating, ECHORC [1, 5]: 6.0
- herbicidal effect rating, ECHORC [1, 6]: 8.0
- herbicidal effect rating, ECHORC [1, 7]: 8.0
- herbicidal effect rating, ECHORC [1, 8]: 9.0
- herbicidal effect rating, CYPIR (Cyperus iria; [5]): 0.0
- herbicidal effect rating, CYPIR (Cyperus iria; [6]): 2.0
- herbicidal effect rating, CYPIR (Cyperus iria; [7]): 4.0
- herbicidal effect rating, CYPIR (Cyperus iria; [8]): 8.0
- herbicidal effect rating, CYPSE [2, 5]: 0.0
- herbicidal effect rating, CYPSE [2, 6]: 0.0
- herbicidal effect rating, CYPSE [2, 7]: 2.0
- herbicidal effect rating, CYPSE [2, 8]: 9.0
- herbicidal effect rating, MOOVA [3, 5]: 8.0
- herbicidal effect rating, MOOVA [3, 6]: 9.0
- herbicidal effect rating, MOOVA [3, 7]: 9.0
- herbicidal effect rating, MOOVA [3, 8]: 9.0
- herbicidal effect rating, SAGPY (Sagittaria pygmaea, L.; [5]): 0.0
- herbicidal effect rating, SAGPY (Sagittaria pygmaea, L.; [6]): 0.0
- herbicidal effect rating, SAGPY (Sagittaria pygmaea, L.; [7]): 0.0
- herbicidal effect rating, SAGPY (Sagittaria pygmaea, L.; [8]): 0.0
- herbicidal effect rating ORYSAT [4, 5]: 4.5
- herbicidal effect rating ORYSAT [4, 6]: 4.5
- herbicidal effect rating ORYSAT [4, 7]: 5.5
- herbicidal effect rating ORYSAT [4, 8]: 7.0

Structure (SMILES): COC(=O)C(C)Oc1c(-c2nsc3ccc(-n4c(=O)cc(C(F)(F)F)n(C)c4=O)cc23)ccc(C)c1C (stereo not drawn) [Example 275, Propionic acid, 2-{{6-{5-[3,6-dihydro-3-methyl-2,6-dioxo-4-(trifluoromethyl)-1(2H)-pyrimidinyl]-1,2-benzisothiazol-3-yl}-2,3-xylyl}oxy}-, methyl ester]
- ECHORC herbicidal effect rating [1, 9]: 3.7
- ECHORC herbicidal effect rating [1, 10]: 3.9
- ECHORC herbicidal effect rating [1, 11]: 4.1
- ECHORC herbicidal effect rating [1, 12]: 9.0
- ECHORC herbicidal effect rating [1, 13]: 7.0
- CYPIR herbicidal effect rating (Cyperus iria; [9]): 0.0
- CYPIR herbicidal effect rating (Cyperus iria; [10]): 4.0
- CYPIR herbicidal effect rating (Cyperus iria; [11]): 6.0
- CYPIR herbicidal effect rating (Cyperus iria; [12]): 7.0
- CYPIR herbicidal effect rating (Cyperus iria; [13]): 0.0
- CYPSE herbicidal effect rating [2, 9]: 9.0
- CYPSE herbicidal effect rating [2, 10]: 9.0
- CYPSE herbicidal effect rating [2, 11]: 9.0
- CYPSE herbicidal effect rating [2, 12]: 9.0
- CYPSE herbicidal effect rating [2, 13]: 0.0
- MOOVA herbicidal effect rating [3, 9]: 6.0
- MOOVA herbicidal effect rating [3, 10]: 9.0
- MOOVA herbicidal effect rating [3, 11]: 9.0
- MOOVA herbicidal effect rating [3, 12]: 9.0
- MOOVA herbicidal effect rating [3, 13]: 9.0
- SAGPY herbicidal effect rating (Sagittaria pygmaea, L.; [9]): 0.0
- SAGPY herbicidal effect rating (Sagittaria pygmaea, L.; [10]): 0.0
- SAGPY herbicidal effect rating (Sagittaria pygmaea, L.; [11]): 3.0
- SAGPY herbicidal effect rating (Sagittaria pygmaea, L.; [12]): 9.0
- SAGPY herbicidal effect rating (Sagittaria pygmaea, L.; [13]): 0.0
- ORYSAT herbicidal effect rating [4, 9]: 0.0
- ORYSAT herbicidal effect rating [4, 10]: 0.0
- ORYSAT herbicidal effect rating [4, 11]: 3.0
- ORYSAT herbicidal effect rating [4, 12]: 4.0
- ORYSAT herbicidal effect rating [4, 13]: 5.0

Structure (SMILES): Cn1c(C(F)(F)F)cc(=O)n(-c2ccc3snc(COS(=O)(=O)c4ccccc4)c3c2)c1=O [Example 382, 2,4(1H,3H)-Pyrimidinedione, 3-[3-(hydroxymethyl)-1,2-benzisothiazol-5-yl]-1-methyl-6-(trifluoromethyl)-, benzenesulfonate (ester)]
- herbicidal effect rating, ECHORC [1, 9]: 0.0
- herbicidal effect rating, ECHORC [1, 10]: 3.0
- herbicidal effect rating, ECHORC [1, 11]: 4.0
- herbicidal effect rating, ECHORC [1, 12]: 7.0
- herbicidal effect rating, CYPIR (Cyperus iria; [9]): 5.0
- herbicidal effect rating, CYPIR (Cyperus iria; [10]): 6.0
- herbicidal effect rating, CYPIR (Cyperus iria; [11]): 7.0
- herbicidal effect rating, CYPIR (Cyperus iria; [12]): 9.0
- herbicidal effect rating, CYPSE [2, 9]: 0.0
- herbicidal effect rating, CYPSE [2, 10]: 0.0
- herbicidal effect rating, CYPSE [2, 11]: 7.0
- herbicidal effect rating, CYPSE [2, 12]: 7.0
- herbicidal effect rating, MOOVA [3, 9]: 9.0
- herbicidal effect rating, MOOVA [3, 10]: 9.0
- herbicidal effect rating, MOOVA [3, 11]: 9.0
- herbicidal effect rating, MOOVA [3, 12]: 9.0
- herbicidal effect rating, SAGPY (Sagittaria pygmaea, L.; [9]): 3.0
- herbicidal effect rating, SAGPY (Sagittaria pygmaea, L.; [10]): 4.0
- herbicidal effect rating, SAGPY (Sagittaria pygmaea, L.; [11]): 7.0
- herbicidal effect rating, SAGPY (Sagittaria pygmaea, L.; [12]): 9.0
- herbicidal effect rating ORYSAT [4, 9]: 5.0
- herbicidal effect rating ORYSAT [4, 10]: 6.0
- herbicidal effect rating ORYSAT [4, 11]: 6.0
- herbicidal effect rating ORYSAT [4, 12]: 5.0
